Results from ChEMBL document CHEMBL5356993, “Novel pyrazolo[3,4-d]pyrimidine derivatives: design, synthesis, anticancer evaluation, VEGFR-2 inhibition, and antiangiogenic activity” (RSC Med Chem, 2023).

Tests used:
[1] = test system: HUVEC; experiment: Antiangiogenic activity against HUVEC cells assessed as wound closure at IC50 incubated for 72 hrs by wound healing assay (reference value: 98.518 %); type: functional, Homo sapiens
[2] = test system: MDA-MB-468; experiment: Induction of apoptosis in human MDA-MB-468 cells assessed as increase in caspase-3 level incubated for 2 hrs by ELISA (reference value: 2.109 ng/ml); type: functional
[3] = test system: HUVEC; experiment: Antiangiogenic activity against HUVEC cells assessed as decrease in healing rate at IC50 incubated for 72 hrs by wound healing assay relative to control; type: functional, Homo sapiens; set-up: scale not given: the % may be the effect or the level left

CCN(CC)CCNC(=O)c1c(C)[nH]c(/C=C2\C(=O)Nc3ccc(F)cc32)c1C [SUNITINIB]
Activity [1]: 57.777%
Activity [2]: 21.83 ng/mL
Activity [3]: 41%
